According to ChEMBL document CHEMBL4351025, “Indole-nitroimidazole conjugates as efficient manipulators to decrease the genes expression of methicillin-resistant Staphylococcus aureus” (Eur J Med Chem, 2019):
≈ marks a conversion by molar mass, not a printed value.

Assays:
Format in all cases: functional
Staphylococcus aureus [1] = assay: Antibacterial activity against methicillin-resistant Staphylococcus aureus N315 incubated for 24 hrs by two fold serial dilution method; conditions: N315, 24 h
Enterococcus faecalis [2] = assay: Antibacterial activity against Enterococcus faecalis incubated for 24 hrs by two fold serial dilution method
Staphylococcus aureus [3] = assay: Antibacterial activity against Staphylococcus aureus ATCC 29213 incubated for 24 hrs by two fold serial dilution method; conditions: ATCC 29213, 24 h
Klebsiella pneumoniae = assay: Antibacterial activity against Klebsiella pneumoniae incubated for 24 hrs by two fold serial dilution method
Escherichia coli = assay: Antibacterial activity against Escherichia coli incubated for 24 hrs by two fold serial dilution method
Pseudomonas aeruginosa = assay: Antibacterial activity against Pseudomonas aeruginosa incubated for 24 hrs by two fold serial dilution method
Acinetobacter baumannii = assay: Antibacterial activity against Acinetobacter baumannii incubated for 24 hrs by two fold serial dilution method
Enterococcus faecalis [4] = assay: Potency index, ratio of MIC for norfloxacin to test compound MIC for antibacterial activity against Enterococcus faecalis

Row | SMILES | MIC (Staphylococcus aureus [1]) [µg/mL] | MIC (Enterococcus faecalis [2]) [µg/mL] | MIC (Staphylococcus aureus [3]) [µg/mL] | MIC (Klebsiella pneumoniae) [µg/mL] | MIC (Escherichia coli) [µg/mL] | MIC (Pseudomonas aeruginosa) [µg/mL] | MIC (Acinetobacter baumannii) [µg/mL] | Ratio (Enterococcus faecalis [4])
1 | CC(=O)/C(=C/c1cn(CC(=O)N2CCN(Cc3ccc(F)cc3)CC2)c2cc(C)ccc12)n1cc([N+](=O)[O-])nc1C | 2 (≈ 3.58 µM) | 64 (≈ 115 µM) | 512 (≈ 917 µM) | 512 (≈ 917 µM) | 512 (≈ 917 µM) | 128 (≈ 229 µM) | 512 (≈ 917 µM) | –
2 | CC(=O)/C(=C/c1cn(CC(=O)N2CCN(Cc3ccc(Cl)cc3Cl)CC2)c2ccccc12)n1cc([N+](=O)[O-])nc1C | 64 (≈ 107 µM) | 128 (≈ 215 µM) | 256 (≈ 430 µM) | 128 (≈ 215 µM) | 512 (≈ 860 µM) | 256 (≈ 430 µM) | 256 (≈ 430 µM) | –
3 | C#CCn1cc(/C=C(/C(C)=O)n2cc([N+](=O)[O-])nc2C)c2ccccc21 | 2 (≈ 5.74 µM) | 32 (≈ 91.9 µM) | 128 (≈ 367 µM) | 128 (≈ 367 µM) | 512 (≈ 1470 µM) | 128 (≈ 367 µM) | 128 (≈ 367 µM) | –
4 | C=CCn1cc(/C=C(/C(C)=O)n2cc([N+](=O)[O-])nc2C)c2ccccc21 | 32 (≈ 91.3 µM) | 64 (≈ 183 µM) | 4 (≈ 11.4 µM) | 32 (≈ 91.3 µM) | 32 (≈ 91.3 µM) | 16 (≈ 45.7 µM) | 16 (≈ 45.7 µM) | –
5 | CC(=O)/C(=C/c1cn(CC(=O)N2CCN(Cc3ccc(F)cc3)CC2)c2ccccc12)n1cc([N+](=O)[O-])nc1C | 32 (≈ 58.8 µM) | 2 (≈ 3.67 µM) | 8 (≈ 14.7 µM) | 16 (≈ 29.4 µM) | 16 (≈ 29.4 µM) | 32 (≈ 58.8 µM) | 32 (≈ 58.8 µM) | 2
6 | CC(=O)/C(=C/c1cn(CC(=O)N2CCCCC2)c2cc(C)ccc12)n1cc([N+](=O)[O-])nc1C | 1 (≈ 2.22 µM) | 128 (≈ 285 µM) | 16 (≈ 35.6 µM) | 32 (≈ 71.2 µM) | 256 (≈ 570 µM) | 32 (≈ 71.2 µM) | 256 (≈ 570 µM) | –
7 | CC(=O)/C(=C/c1cn(CC(=O)N(C)c2ccccc2)c2ccccc12)n1cc([N+](=O)[O-])nc1C | 1 (≈ 2.19 µM) | 64 (≈ 140 µM) | 128 (≈ 280 µM) | 32 (≈ 69.9 µM) | 32 (≈ 69.9 µM) | 128 (≈ 280 µM) | 128 (≈ 280 µM) | –
8 | CC(=O)/C(=C/c1cn(CC(=O)N2CCN(Cc3ccc(F)cc3)CC2)c2cc(Cl)ccc12)n1cc([N+](=O)[O-])nc1C | 512 (≈ 884 µM) | 2 (≈ 3.45 µM) | 512 (≈ 884 µM) | 512 (≈ 884 µM) | 512 (≈ 884 µM) | 128 (≈ 221 µM) | 512 (≈ 884 µM) | –
9 | CCN(CC)C(=O)Cn1cc(/C=C(/C(C)=O)n2cc([N+](=O)[O-])nc2C)c2ccc(C)cc21 | 4 (≈ 9.14 µM) | 64 (≈ 146 µM) | 16 (≈ 36.6 µM) | 512 (≈ 1170 µM) | 128 (≈ 293 µM) | 128 (≈ 293 µM) | 512 (≈ 1170 µM) | –
10 | CC(=O)/C(=C/c1cn(CC(=O)N2CCCCC2)c2cc(Cl)ccc12)n1cc([N+](=O)[O-])nc1C | 64 (≈ 136 µM) | 4 (≈ 8.51 µM) | 512 (≈ 1090 µM) | 64 (≈ 136 µM) | 64 (≈ 136 µM) | 256 (≈ 545 µM) | 512 (≈ 1090 µM) | –
